The values below come from patent US11466006B2, “Dual selective PI3 delta and gamma kinase inhibitors” (Rhizen Pharmaceuticals SA, priority 2013, dated 2022).

Structures are written as SMILES. Like-named read-outs stand apart in the source and are kept apart here. A value given as a limit tells only on which side of the number the result lay.

The test system of assay [1] is TNF-α. Put plainly: Lipopolysaccharide induced TNF-α production. The class given is in vivo, rat. Here is the method:
Fasted female wistar rats were randomized into different groups depending on their body weights. Test compound (Compound A1) was prepared as a suspension in a vehicle consisting of 0.5% methylcellulose. The compound or vehicle was administered by oral gavage in a volume of 10 mL/kg. LPS solution was administered intraperitoneally one hour after compound administration at a dose of 0.3 mg/kg. Blood was collected in serum separator tubes via cardiac puncture ninety minutes after LPS injection. Serum was separated and stored at −20° C. and will be analysed for TNFα by ELISA.

Assay [2] addresses T1, Pi3K β (Homo sapiens, UniProt P42338).
T1 construct: purchased Millipore (assay kit)
Put plainly: Fluorescent (HTRF) determination of PI3 kinase enzyme activity, beta isoform. Type of assay: biochemical. Particulars: Table 1, HTRF. An excerpt: Phosphoinositide 3 kinases (PI3K) belong to a class of lipid kinases that play a critical role in the regulation of several key cellular processes. The PI3K are capable of phosphorylating the 3-hydroxy position of phosphoinositols thereby generating second messengers involved in downstream signalling events. The homogenous time resolved fluorescence (HTRF) assay allows detection of 3,4,5-triphosphate (PIP3) formed as a result of phosphorylation of phosphotidylinositol 4,5-biphosphate (PIP2) by PI3K isoforms such as α, β, γ or δ.
PI3K isoform activity for α, β, γ or δ was determined using a PI3K human HTRF™ Assay Kit (Millipore, Billerica, Mass.) with modifications. All incubations were carried out at room temperature. Briefly, 0.5 μl of 40× inhibitor (in 100% DMSO) or 100% DMSO were added to each well of a 384-well white plate (Greiner Bio-One, Monroe, N.C.) containing 14.5 μl 1× reaction buffer /PIP2 (10 mM MgCl2, 5 mM DTT, 1.38 μM PIP2) mix with or without enzyme, followed by 5 μl/well of 400 μM ATP and incubated for an additional 30 minutes. Reaction was terminated by adding 5 μl/well stop solution (Millipore, Billerica, Mass.). […] HRTF ratio was measured on a microplate reader (BMG Labtech., Germany) at an excitation wavelength of 337 nm and emission wavelengths of 665 and 615 nm with an integration time of 400 msec counting delay of 50 msec.
For orientation: In TR-FRET formats the signal depends on donor and acceptor labels being close together.

The target in assay [3] is Pi3K γ (Homo sapiens, UniProt P48736). Put plainly: fMLP induced CD63 expression in basophils from human whole blood. The class given is cell-based. Particulars: n=10, read-out: IC50 for fMLP (PI3K γ), CD63 positive basophils. The protocol:
PI3K δ and γ signalling in basophils manifested by an alteration of anti-FcεR1 or fMLP induced CD63 expression is a useful pharmacodynamic marker determined using the Flow2CAST® kit (Buhlmann Laboratories, Switzerland). Briefly, it involves the following steps: • Mix the anti-coagulated blood sample by inverting the venipuncture tube several times; • Prepare fresh and pyrogen-free 3.5 ml polypropylene or polystyrene tubes suitable for Flow Cytometry measurements; • Add 49 μl of patient's whole blood to each tube; • Add 1 μl of 10% DMSO (background) or compound (10% DMSO) to the assigned tubes and mix gently. Incubate at room temperature for 15 minutes; • Pipet 50 μl of the Stimulation buffer (background) or anti-FcεRI Ab or or fMLP to each tube; • Add 100 μl of Stimulation Buffer to each tube; • Mix gently. Add 20 μl Staining Reagent (1:1 mix of FITC-CD63 and PE-CCR3) to each tube; • Mix gently, cover the tubes and incubate for 15 minutes at 37° C. in a water bath. […]
Percent CD63 positive cells within the gated basophil population were determined in different treatment groups and normalized to vehicle control.

The subject of assay [4] is anti-human CD3/CD28 co-stimulated primary T-cells. Briefly: Cytokine assay in anti-human CD3 and CD28 co-stimulated primary T-cells (ELISA). The class given is cell-based. Particulars: T-cell, anti-human CD3-CD28 induced, 24 h, eight independent experiments. The protocol: The objective of this study was to assess the inhibitory potential of Compound A1 on cytokines produced by anti-human CD3/CD28 co-stimulated primary T-cells.
• Plates were coated with 50 μl of anti-human CD3 at a concentration of 100 ng/ml either overnight at 4° C. or for 2 h at 37° C. After incubation, plates were washed twice with sterile PBS to remove unbound antibody. • Isolated human T-cells were re-suspended to 0.625×10^6 cells per ml in 1.5 ml tubes and 1 μl of drug dilution (1000×) was added. A DMSO blank and un-induced blank were maintained. • Cells were incubated with compound at room temperature for 30 min and then added to anti-human CD3 coated wells of a 96-well plate, 240 μl each. Anti-human CD28 was added immediately, 10 μl (25×) per well. • Plate was incubated at 37° C., 5% CO2 for 24 h. • Plates were centrifuged at 4000 rpm at room temperature, supernatant was collected and stored at −20° C. • Cytokines were determined using a commercial ELISA kit with absorbance read at 450 and 570 nm.
For orientation: In an ELISA, binding on a coated surface is turned into a signal by an enzyme label.

The target of assay [5] is T2, PI3K beta (Mus musculus, UniProt Q8BTI9).
T2 construct: 3T3 cells were treated with desired concentrations of the test compound for 15 min; endogenous in cells; host or cells: 3T3 fibroblasts
T2 sequence (Q8BTI9 whole entry): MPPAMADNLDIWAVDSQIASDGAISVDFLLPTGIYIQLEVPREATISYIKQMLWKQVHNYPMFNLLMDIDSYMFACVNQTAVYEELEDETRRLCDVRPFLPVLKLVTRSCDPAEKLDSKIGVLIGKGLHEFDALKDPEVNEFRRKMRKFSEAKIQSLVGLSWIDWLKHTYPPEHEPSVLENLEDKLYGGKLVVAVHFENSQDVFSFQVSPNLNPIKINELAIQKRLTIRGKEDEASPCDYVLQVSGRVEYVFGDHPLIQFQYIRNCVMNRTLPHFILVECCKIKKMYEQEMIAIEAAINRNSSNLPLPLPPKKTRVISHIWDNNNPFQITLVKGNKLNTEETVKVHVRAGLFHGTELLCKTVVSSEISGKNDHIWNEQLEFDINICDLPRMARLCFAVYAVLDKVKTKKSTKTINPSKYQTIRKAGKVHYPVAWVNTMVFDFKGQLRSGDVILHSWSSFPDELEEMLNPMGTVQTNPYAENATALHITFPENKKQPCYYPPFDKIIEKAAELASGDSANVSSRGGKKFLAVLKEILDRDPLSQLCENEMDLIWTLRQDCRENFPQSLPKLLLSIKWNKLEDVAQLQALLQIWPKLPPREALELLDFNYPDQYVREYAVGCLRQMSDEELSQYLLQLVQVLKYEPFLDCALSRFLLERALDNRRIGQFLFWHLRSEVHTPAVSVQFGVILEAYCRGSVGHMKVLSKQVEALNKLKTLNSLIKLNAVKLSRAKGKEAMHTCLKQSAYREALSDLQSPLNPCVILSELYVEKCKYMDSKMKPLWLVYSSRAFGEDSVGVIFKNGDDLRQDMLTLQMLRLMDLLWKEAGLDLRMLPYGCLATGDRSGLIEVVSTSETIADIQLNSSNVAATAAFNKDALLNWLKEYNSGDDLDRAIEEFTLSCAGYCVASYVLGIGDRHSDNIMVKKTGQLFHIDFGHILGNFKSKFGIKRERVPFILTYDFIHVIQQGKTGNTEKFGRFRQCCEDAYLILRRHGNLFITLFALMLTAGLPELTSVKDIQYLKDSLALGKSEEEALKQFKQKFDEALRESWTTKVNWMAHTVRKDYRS
T2 sequence (P26450 whole entry partner): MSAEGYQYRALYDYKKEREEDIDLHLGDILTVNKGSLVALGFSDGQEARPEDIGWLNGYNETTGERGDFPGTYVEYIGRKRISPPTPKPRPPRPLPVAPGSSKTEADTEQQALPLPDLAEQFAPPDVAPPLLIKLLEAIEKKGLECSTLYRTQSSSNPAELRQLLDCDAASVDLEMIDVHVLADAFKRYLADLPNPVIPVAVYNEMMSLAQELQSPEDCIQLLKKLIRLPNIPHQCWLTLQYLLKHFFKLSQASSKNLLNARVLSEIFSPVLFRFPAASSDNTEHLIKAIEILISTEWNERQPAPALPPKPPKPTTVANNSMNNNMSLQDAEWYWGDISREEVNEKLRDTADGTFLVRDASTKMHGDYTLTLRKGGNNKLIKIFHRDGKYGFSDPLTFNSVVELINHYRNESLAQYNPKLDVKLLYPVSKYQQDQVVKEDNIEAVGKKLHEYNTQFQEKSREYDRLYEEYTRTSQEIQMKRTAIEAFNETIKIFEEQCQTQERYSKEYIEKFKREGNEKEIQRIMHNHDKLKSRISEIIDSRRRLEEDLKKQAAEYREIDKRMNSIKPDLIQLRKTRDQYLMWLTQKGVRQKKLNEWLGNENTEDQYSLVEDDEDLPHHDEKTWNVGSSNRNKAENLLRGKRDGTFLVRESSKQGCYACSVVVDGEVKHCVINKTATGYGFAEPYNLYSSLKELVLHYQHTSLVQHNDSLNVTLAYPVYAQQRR
Put plainly: LPA induced AktS473 phosphorylation in 3T3 fibroblasts (PI3Kβ selectivity). Particulars: read-out: Cellular IC50 PI3K beta (LPA induced pAKT in 3T3 fibroblasts). Type of assay: cell-based.

The target in assay [6] is T3, PI3K delta (Homo sapiens, UniProt O00329).
T3 construct: Isolated B-cells were re-suspended to 1.0×10^6 cells per ml; endogenous in cells; host or cells: isolated human B cells
Put plainly: Anti-IgM induced B-cell proliferation (PI3Kδ selectivity). Particulars: read-out: Cellular IC50 PI3K delta (anti-IgM induced human B-cell proliferation). The class given is cell-based. The protocol:
The objective of this study was to assess the inhibitory potential of Compound A1 on anti-IgM induced human B-cell proliferation.
• Isolated B-cells were re-suspended to 1.0×10^6 cells per ml. 100 μl of cell suspension was added to each well of a 96-well plate. Triplicates were maintained. • 50 μl of drug dilution was added and mixed well. A DMSO blank and inducer blank were maintained. • Treated plate was incubated for 30 min at 37° C., 5% CO2 and then 50 μl of 4× inducer was added and mixed by pipetting. • Plate was incubated at 37° C., 5% CO2 for 72 h. • Media was aspirated and 150 μl of DMSO was added to dissolve the formazan crystals. • Absorbance was read at A560 and A640 nm.

Sequence of Pi3K γ (P48736 whole entry): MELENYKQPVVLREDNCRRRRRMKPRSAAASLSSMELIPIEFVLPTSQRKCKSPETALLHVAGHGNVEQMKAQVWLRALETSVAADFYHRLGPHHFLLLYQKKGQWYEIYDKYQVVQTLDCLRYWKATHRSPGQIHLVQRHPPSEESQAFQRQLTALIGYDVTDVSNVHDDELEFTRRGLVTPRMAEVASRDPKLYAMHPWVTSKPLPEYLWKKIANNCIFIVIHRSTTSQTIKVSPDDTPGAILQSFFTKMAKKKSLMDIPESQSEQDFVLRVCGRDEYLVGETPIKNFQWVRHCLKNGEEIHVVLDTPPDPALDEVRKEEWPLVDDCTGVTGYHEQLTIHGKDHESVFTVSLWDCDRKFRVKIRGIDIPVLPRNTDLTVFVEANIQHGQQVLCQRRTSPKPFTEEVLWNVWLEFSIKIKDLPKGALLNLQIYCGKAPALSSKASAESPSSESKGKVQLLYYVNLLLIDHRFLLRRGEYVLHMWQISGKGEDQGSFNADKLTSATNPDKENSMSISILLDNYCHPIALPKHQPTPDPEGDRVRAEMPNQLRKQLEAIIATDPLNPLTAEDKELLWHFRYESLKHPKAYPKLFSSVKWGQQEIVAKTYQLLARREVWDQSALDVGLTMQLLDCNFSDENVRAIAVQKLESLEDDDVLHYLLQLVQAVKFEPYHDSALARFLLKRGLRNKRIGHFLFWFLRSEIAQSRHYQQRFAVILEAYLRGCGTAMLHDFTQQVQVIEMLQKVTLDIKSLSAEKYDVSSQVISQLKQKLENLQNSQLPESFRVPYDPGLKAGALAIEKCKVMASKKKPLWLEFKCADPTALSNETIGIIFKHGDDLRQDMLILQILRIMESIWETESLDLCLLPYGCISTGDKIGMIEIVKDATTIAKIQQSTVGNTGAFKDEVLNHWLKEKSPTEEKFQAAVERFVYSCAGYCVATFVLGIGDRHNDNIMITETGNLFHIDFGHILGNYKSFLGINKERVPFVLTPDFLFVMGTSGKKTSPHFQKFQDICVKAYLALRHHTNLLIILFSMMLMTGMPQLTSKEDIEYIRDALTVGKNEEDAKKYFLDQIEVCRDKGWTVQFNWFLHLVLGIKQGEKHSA
T1 sequence (P42338 whole entry): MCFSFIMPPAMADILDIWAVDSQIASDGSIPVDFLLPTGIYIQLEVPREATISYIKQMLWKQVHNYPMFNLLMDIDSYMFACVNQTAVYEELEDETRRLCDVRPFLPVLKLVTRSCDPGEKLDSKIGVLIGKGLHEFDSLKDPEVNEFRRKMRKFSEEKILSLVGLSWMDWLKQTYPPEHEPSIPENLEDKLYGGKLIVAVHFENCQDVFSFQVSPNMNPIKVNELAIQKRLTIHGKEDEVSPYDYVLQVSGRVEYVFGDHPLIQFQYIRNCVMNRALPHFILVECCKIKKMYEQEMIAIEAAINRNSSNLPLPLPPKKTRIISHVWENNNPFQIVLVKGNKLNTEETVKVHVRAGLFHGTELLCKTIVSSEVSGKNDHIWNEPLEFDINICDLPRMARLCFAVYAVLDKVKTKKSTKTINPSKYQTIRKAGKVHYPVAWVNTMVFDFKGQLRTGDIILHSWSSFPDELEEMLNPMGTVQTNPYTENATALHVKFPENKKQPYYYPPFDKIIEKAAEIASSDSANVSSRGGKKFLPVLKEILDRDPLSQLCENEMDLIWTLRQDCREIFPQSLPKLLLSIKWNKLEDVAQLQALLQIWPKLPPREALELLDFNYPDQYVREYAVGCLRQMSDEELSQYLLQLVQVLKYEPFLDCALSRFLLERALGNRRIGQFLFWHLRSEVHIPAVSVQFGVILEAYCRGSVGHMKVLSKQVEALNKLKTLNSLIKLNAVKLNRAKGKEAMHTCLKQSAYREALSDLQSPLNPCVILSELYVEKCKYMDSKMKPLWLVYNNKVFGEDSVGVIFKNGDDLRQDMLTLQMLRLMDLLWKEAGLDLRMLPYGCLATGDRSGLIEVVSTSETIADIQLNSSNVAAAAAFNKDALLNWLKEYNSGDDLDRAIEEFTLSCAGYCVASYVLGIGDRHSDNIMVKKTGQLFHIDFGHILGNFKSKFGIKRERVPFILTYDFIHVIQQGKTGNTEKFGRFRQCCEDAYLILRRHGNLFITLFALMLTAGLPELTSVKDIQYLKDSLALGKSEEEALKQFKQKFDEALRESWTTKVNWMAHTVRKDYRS
T1 sequence (P27986 whole entry partner): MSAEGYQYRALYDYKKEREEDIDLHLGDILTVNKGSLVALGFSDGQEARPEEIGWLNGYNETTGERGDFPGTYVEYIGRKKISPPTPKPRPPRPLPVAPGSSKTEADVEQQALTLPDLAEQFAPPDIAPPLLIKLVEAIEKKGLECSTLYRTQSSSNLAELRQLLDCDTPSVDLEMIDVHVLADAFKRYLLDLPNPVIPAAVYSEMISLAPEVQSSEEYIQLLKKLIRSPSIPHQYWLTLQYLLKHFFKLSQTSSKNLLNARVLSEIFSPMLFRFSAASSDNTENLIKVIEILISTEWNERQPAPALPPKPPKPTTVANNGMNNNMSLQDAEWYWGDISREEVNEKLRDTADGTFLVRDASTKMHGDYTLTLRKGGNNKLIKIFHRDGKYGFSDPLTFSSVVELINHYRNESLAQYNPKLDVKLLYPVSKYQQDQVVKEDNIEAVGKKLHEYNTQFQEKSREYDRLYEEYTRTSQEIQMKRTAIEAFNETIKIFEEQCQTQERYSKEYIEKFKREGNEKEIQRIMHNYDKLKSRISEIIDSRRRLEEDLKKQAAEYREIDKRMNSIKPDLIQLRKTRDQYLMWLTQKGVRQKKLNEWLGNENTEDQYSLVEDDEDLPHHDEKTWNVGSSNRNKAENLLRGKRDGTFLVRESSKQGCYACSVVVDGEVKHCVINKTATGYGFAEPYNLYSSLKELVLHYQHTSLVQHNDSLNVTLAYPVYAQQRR

Take `CC[C@H](Nc1ncnc2[nH]cnc12)c1oc2ccccc2c(=O)c1-c1cccc(F)c1` [Compound A1, (S)-2-(1-(9H-purin-6-ylamino)propyl)-3-(3-fluorophenyl)-4H-chromen-4-one]: the “percent inhibition of plasma TNFα” value in assay [1] (1 mg/kg po) turned out to be 5%; in assay [1] (3 mg/kg po), 15%; in assay [1] (10 mg/kg po), 40%. In addition, the IC50 was more than 4000 nM in assay [2]; less than 40 nM in assay [3]; 9.54 nM in assay [4] (read-out: IC50, IFNγ); 20.6 nM in assay [4] (read-out: IC50, IL2); 24 nM in assay [4] (read-out: IC50, TNFα); 2070 nM in assay [5]. Besides, the IC50 in assay [6] came to 38.1 nM.
